Source: patent publication US20230174584A1, “Antibiotic Compounds” (priority 2019, published 2023)
Values after ≈ are worked out from the molar mass of the structure shown.

Experiments:
E. faecium E1441 = assay: MIC assay; assay type: cell-based, Enterococcus faecium; details: E. faecium E1441, VanA
E. faecalis E1246 = assay: MIC assay; assay type: cell-based, Enterococcus faecalis
Procedure, shortened: (§1)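 MICs (μg/mL) were read after 24 h incubation at 37 °C and taken as the median of at least three replicates. Compounds were serially diluted twofold in TSB containing 0.002% polysorbate 80 and inoculated with an equal volume of bacteria at 10^6 CFU/mL.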

E. faecalis E7406 = assay: microbe, parasite or virus in culture; assay type: cell-based, Enterococcus faecalis
Procedure, shortened: as §1

[1] = test system: Klebsiella pneumoniae JS265; assay: MIC assay; assay type: cell-based
Procedure, shortened: as §1

[2] = test system: Escherichia coli ATCC 35218; assay: MIC assay; assay type: cell-based
Procedure, shortened: as §1

Escherichia coli W3110 = assay: MIC assay; assay type: cell-based
Procedure, shortened: as §1

S. pneumoniae 153 = assay: MIC assay; assay type: cell-based
Procedure, shortened: as §1

[3] = test system: Klebsiella pneumoniae ATCC 27736; assay: MIC assay; assay type: cell-based
Procedure, shortened: as §1

[4] = test system: Klebsiella pneumoniae ATCC 13883; assay: MIC assay; assay type: cell-based
Procedure, shortened: as §1

[5] = test system: Escherichia coli ATCC 25922; assay: MIC assay; assay type: cell-based
Procedure, shortened: as §1

[6] = test system: S. aureus 880 (BR-VRSA), NR-49120; assay: MIC assay; assay type: cell-based, Staphylococcus aureus
Procedure, shortened: as §1

[7] = test system: S. aureus NY-155, NR-46236; assay: MIC assay; assay type: cell-based, Staphylococcus aureus
Procedure, shortened: as §1

S. aureus ATCC29213 = assay: MIC assay; assay type: cell-based, Staphylococcus aureus
Procedure, shortened: as §1

[8] = test system: S. aureus HIP12864, NR-46074; assay: MIC assay; assay type: cell-based, Staphylococcus aureus
Procedure, shortened: as §1

[9] = test system: S. aureus LIM-2, NR-25881; assay: MIC assay; assay type: cell-based, Staphylococcus aureus
Procedure, shortened: as §1

[10] = test system: panel of 31 vancomycin-resistant E. faecium strains; assay: MIC assay, MIC50/MIC90 over panel; assay type: cell-based, Enterococcus faecium; details: panel of 31 vancomycin-resistant E. faecium strains
Description: The antibacterial activity of the compounds was tested against a panel of bacteria, including Gram-positive bacteria (S. aureus ATCC29213, S. aureus USA300, S. aureus LIM-2, NR-45881, S. aureus HIP13419, NR-46413, E. faecium E155, E. faecium E7314, E. faecium E980, E. faecalis E1246, E. faecalis E7406 and S. pneumonia 153). The antibacterial activity of the compounds was further tested against S. aureus NY-155, NR-46236, S. aureus HIP12864, NR-46074, S. aureus 880 (BR-VRSA), NR-49120, E. faecalis E1246, E. faecalis E7604, as well as some Gram-negative bacteria (Escherichia coli and Klebsiella pneumoniae). Minimum inhibitory concentrations (MICs) in μg/mL were performed according to the CLSI guidelines. From glycerol stocks, bacterial strains were cultured on blood agar plates and incubated at 37° C. for 18 h. A single colony was transferred to tryptic soy broth (TSB) with 0.002% polysorbate 80 (p80). For the Enterococcus, VISA and VRSA strains, the cultures were grown at 37° C. until the optical density of the suspension reached a level equivalent to the 0.5 McFarland standard. The bacterial suspensions were diluted in TSB with 0.002% p80 to reach a bacterial cell density of 10^6 CFU/mL. In case of the other (vancomycin-sensitive) S. aureus strains, the direct colony suspension method was used. For these strains, after transfer of the colonies to TSB with 0.002% p80, they were immediately diluted to 10^6 CFU/mL, instead of incubated prior to this dilution. In the case of S. pneumonia, direct colony suspension was used by immediately suspending multiple colonies from fresh blood agar plates in TSB+0.002% p80 to an OD600 of 0.5 and subsequent dilution to 10^6 CFU mL^−1 in TSB+0.002% p80+5% lysed horse blood. Antibiotic dilutions for this strains were also made in TSB+0.002% p80+5% lysed horse blood. Both agar and microplates containing S. pneumonia were incubated at 37° C. with 5% CO2 for 24 h with constant shaking (600 rpm). […] The cultures were grown to exponential phase (OD600=0.5) at 37° C. […] In polypropylene 96-well microtiter plates, test compounds were added in biological triplicates and serial diluted 2-fold by transfer and mixing from one well to the next to achieve a final volume of 50 μL per well. An equal volume of bacterial suspension (10^6 CFU mL^−1) was added to the wells. The plates were sealed with breathable membranes and incubated at 37° C. for 24 h with constant shaking (600 rpm). In polypropylene microtiter plates, 100 μL of the test compounds was added to the first row in biological triplicates, and 50 μL of media was added to the other wells. The compounds were subjected to serial dilution by transfer and mixing of 50 μL from one well to the next. Subsequently, 50 μL of bacterial suspension (10^6 CFU/mL) was added to the wells. The plates were sealed with breathable membranes and incubated at 37° C. for 24 h with constant shaking (600 rpm). Positive growth control consisted of wells with bacterial suspension and without antibiotic. Negative growth control consisted of solely media without bacterial suspension or antibiotic. The MICs were determined from the median of a minimum of triplicates.

E. faecium E0745 = assay: MIC assay; assay type: cell-based, Enterococcus faecium; details: E. faecium E0745, VanA
Procedure, shortened: as §1

E. faecium E0300 = assay: MIC assay; assay type: cell-based, Enterococcus faecium; details: E. faecium E0300, VanA
Procedure, shortened: as §1

E. faecium E2373 = assay: MIC assay; assay type: cell-based, Enterococcus faecium; details: E. faecium E2373, VanA
Procedure, shortened: as §1

E. faecium E8237 = assay: MIC assay; assay type: cell-based, Enterococcus faecium; details: E. faecium E8237, VanA
Procedure, shortened: as §1

[11] = E. faecalis E1246 VRE (VanA), Table 7
[12] = E. faecalis E1246 VRE (vanA), Table 9
[13] = S. pneumoniae 153, TSB+0.002% p80+5% lysed horse blood
[14] = S. aureus NY-155, NR-46236 MRSA
[15] = S. aureus HIP12864, NR-46074 VISA

| Compound | MIC (E. faecium E1441) | MIC (E. faecalis E1246; [11]) | MIC (E. faecalis E1246; [12]) | MIC (E. faecalis E7406; E. faecalis E7406 VRE (VanB)) | MIC [1] | MIC [2] | MIC (Escherichia coli W3110) | MIC (S. pneumoniae 153; [13]) | MIC [3] | MIC [4] | MIC [5] | MIC ([6]; S. aureus 880, NR-49120 VRSA) | MIC [7, 14] | MIC (S. aureus ATCC29213; S. aureus ATCC29213 MSSA) | MIC [8, 15] | MIC ([9]; S. aureus LIM-2, NR-25881 VISA) | MIC50 [10] | MIC90 [10] | MIC (E. faecium E0745) | MIC (E. faecium E0300) | other results |
| --- | --- | --- | --- | --- | --- | --- | --- | --- | --- | --- | --- | --- | --- | --- | --- | --- | --- | --- | --- | --- | --- |
| CCCCCCCNC(N)=Nc1ccc(CN[C@@]2(C)C[C@H](O[C@H]3[C@H](Oc4c5cc6cc4Oc4ccc(cc4Cl)[C@@H](O)[C@@H](NC(=O)[C@@H](CC(C)C)NC)C(=O)N[C@@H](CC(N)=O)C(=O)N[C@H]6C(=O)N[C@H]4C(=O)N[C@H](C(=O)N[C@H](C(=O)O)c6cc(O)cc(O)c6-c6cc4ccc6O)[C@H](O)c4ccc(c(Cl)c4)O5)O[C@H](CO)[C@@H](O)[C@@H]3O)O[C@@H](C)[C@H]2O)cc1 [Compound 5] | 4 µg/mL (≈ 2.36 µM) | 16 µg/mL (≈ 9.44 µM) | 16 µg/mL (≈ 9.44 µM) | 0.01562 µg/mL (≈ 0.00922 µM) | >128 µg/mL | >128 µg/mL | >128 µg/mL | ≤0.008 µg/mL | >128 µg/mL | >128 µg/mL | >128 µg/mL | 4 µg/mL (≈ 2.36 µM) | ≤0.008 µg/mL | ≤0.007812 µg/mL | 0.063 µg/mL (≈ 0.0372 µM) | 0.031 µg/mL (≈ 0.0183 µM) | 1 µg/mL (≈ 0.59 µM) | 8 µg/mL (≈ 4.72 µM) | 1 µg/mL (≈ 0.59 µM) | 4 µg/mL (≈ 2.36 µM) | MIC ([6]; strain BR-VRSA): 4 µg/mL (≈ 2.36 µM); MIC (E. faecium E2373): 4 µg/mL (≈ 2.36 µM); MIC (E. faecium E8237): 8 µg/mL (≈ 4.72 µM) |
| CCCCCCCCNC(N)=Nc1ccc(CN[C@@]2(C)C[C@H](O[C@H]3[C@H](Oc4c5cc6cc4Oc4ccc(cc4Cl)[C@@H](O)[C@@H](NC(=O)[C@@H](CC(C)C)NC)C(=O)N[C@@H](CC(N)=O)C(=O)N[C@H]6C(=O)N[C@H]4C(=O)N[C@H](C(=O)N[C@H](C(=O)O)c6cc(O)cc(O)c6-c6cc4ccc6O)[C@H](O)c4ccc(c(Cl)c4)O5)O[C@H](CO)[C@@H](O)[C@@H]3O)O[C@@H](C)[C@H]2O)cc1 [Compound 6] | 2 µg/mL (≈ 1.17 µM) | 8 µg/mL (≈ 4.68 µM) | 8 µg/mL (≈ 4.68 µM) | ≤0.007812 µg/mL | >128 µg/mL | >128 µg/mL | >128 µg/mL | ≤0.008 µg/mL | >128 µg/mL | >128 µg/mL | >128 µg/mL | 2 µg/mL (≈ 1.17 µM) | ≤0.008 µg/mL | ≤0.007812 µg/mL | ≤0.008 µg/mL | ≤0.008 µg/mL | 0.5 µg/mL (≈ 0.293 µM) | 4 µg/mL (≈ 2.34 µM) | 0.25 µg/mL (≈ 0.146 µM) | 2 µg/mL (≈ 1.17 µM) | MIC (E. faecium E2373): 2 µg/mL (≈ 1.17 µM); MIC (E. faecium E8237): 2 µg/mL (≈ 1.17 µM) |
| CCCCCCCCCNC(N)=Nc1ccc(CN[C@@]2(C)C[C@H](O[C@H]3[C@H](Oc4c5cc6cc4Oc4ccc(cc4Cl)[C@@H](O)[C@@H](NC(=O)[C@@H](CC(C)C)NC)C(=O)N[C@@H](CC(N)=O)C(=O)N[C@H]6C(=O)N[C@H]4C(=O)N[C@H](C(=O)N[C@H](C(=O)O)c6cc(O)cc(O)c6-c6cc4ccc6O)[C@H](O)c4ccc(c(Cl)c4)O5)O[C@H](CO)[C@@H](O)[C@@H]3O)O[C@@H](C)[C@H]2O)cc1 [Compound 7] | 1 µg/mL (≈ 0.58 µM) | 2 µg/mL (≈ 1.16 µM) | 2 µg/mL (≈ 1.16 µM) | ≤0.007812 µg/mL | >128 µg/mL | >128 µg/mL | >128 µg/mL | ≤0.008 µg/mL | >128 µg/mL | >128 µg/mL | >128 µg/mL | 0.5 µg/mL (≈ 0.29 µM) | ≤0.008 µg/mL | 0.01562 µg/mL (≈ 0.00907 µM) | ≤0.008 µg/mL | ≤0.008 µg/mL | 0.125 µg/mL (≈ 0.0726 µM) | 1 µg/mL (≈ 0.58 µM) | 0.125 µg/mL (≈ 0.0726 µM) | 0.5 µg/mL (≈ 0.29 µM) | MIC (E. faecium E2373): 0.5 µg/mL (≈ 0.29 µM); MIC (E. faecium E8237): 1 µg/mL (≈ 0.58 µM) |
| CN[C@H](CC(C)C)C(=O)N[C@H]1C(=O)N[C@@H](CC(N)=O)C(=O)N[C@H]2C(=O)N[C@H]3C(=O)N[C@H](C(=O)N[C@H](C(=O)O)c4cc(O)cc(O)c4-c4cc3ccc4O)[C@H](O[C@H]3C[C@](C)(N)[C@@H](O)[C@H](C)O3)c3ccc(c(Cl)c3)Oc3cc2cc(c3O[C@@H]2O[C@H](CO)[C@@H](O)[C@H](O)[C@H]2O[C@H]2C[C@](C)(NCc3ccc(-c4ccc(Cl)cc4)cc3)[C@@H](O)[C@H](C)O2)Oc2ccc(cc2Cl)[C@H]1O [Oritavancin] |  |  | 1 µg/mL (≈ 0.558 µM) |  |  |  |  |  |  |  |  |  |  |  |  |  |  |  |  |  | MIC (E. faecalis E1246; Enterococcus faecalis, VRE): 1 µg/mL (≈ 0.558 µM); MIC (E. faecalis E7406; Enterococcus faecalis, VRE): 0.0625 µg/mL (≈ 0.0349 µM); MIC (S. pneumoniae 153; Streptococcus pneumoniae, 153): ≤ 0.008 µg/mL; MIC ([6]; Staphylococcus aureus, VRSA): 0.25 µg/mL (≈ 0.139 µM); MIC ([6]; strain BR-VRSA): 0.25 µg/mL (≈ 0.139 µM); MIC ([7]; Staphylococcus aureus, MRSA): 0.25 µg/mL (≈ 0.139 µM); MIC (S. aureus ATCC29213; Staphylococcus aureus, ATCC 29213 / MSSA): 0.25 µg/mL (≈ 0.139 µM); MIC ([8]; Staphylococcus aureus, VISA): 4 µg/mL (≈ 2.23 µM); MIC ([9]; Staphylococcus aureus, VISA): 1 µg/mL (≈ 0.558 µM) |
